Reference: patent US20260207824A1, “GALLIUM-LOADED HYDROGELS FOR BONE TREATMENT” (NORTHEAST OHIO MEDICAL UNIVERSITY, priority 2022, published 2026)

Legend:
RAW 264.7 cells [1] = experiment: Biocompatibility (MTT cell viability) of GaAcAc in pre-osteoclastic cells; format: cell-based, murine; settings: GaAcAc 10-50 μg/mL, 37° C., vs untreated control
Method: (§1) RAW 264.7 (pre-osteoclast) and MC3T3 (pre-osteoblast) cells were cultured and maintained in DMEM & AMEM supplemented with 10% FBS and 1% PenStrep in a humidified incubator at 37° C. and 5% CO2 conditions. RAW and MC 3 T3 cells, upon 70-80% confluency, were gently detached using a cell scraper and/or 0.25% v/v trypsin/EDTA. The detached cell suspension was collected and centrifuged at 1500 RPM for 5 minutes and seeded accordingly to the requirement for each experiment.
(§2) After the stipulated time of incubation, cell viability was measured by MTT assay using untreated control cells as a reference.

MC3T3 cells = experiment: Biocompatibility (MTT cell viability) of GaAcAc in pre-osteoblastic cells; format: cell-based; settings: GaAcAc 10-50 μg/mL, 37° C., vs untreated control
Method: as §1, §2

RAW 264.7 cells [2] = experiment: OC differentiation of RAW 264.7 cells with RANKL (TRAP activity, OC count, TRAP staining); format: cell-based, murine; settings: for TRAP activity: vs positive control (RANKL alone); for number of TRAP-stained OCs (OC count): vs positive control, p<0.0001
Method: Pre-osteoclast (RAW 264.7) cells were differentiated by treating the cells with culture media supplemented with or without different concentration of F127 hydrogel (HG) leachates and 30 ng/ml RANKL. The cells were then assessed for TRAP activity and stained. (A) TRAP activity; (B) OC count. Only cells which have 3 or more nuclei and were TRAP stained, i.e., pink color were counted. Each data point represents Mean±SD; n=4 wells. *** p<0.0001, *p<0.01 vs RANKL.
RAW 264.7 (Pre-OC) cells were seeded at a density of 1.5×10^5 cells/cm^2 (day 0) in a 24-well bottom dish of an insert plate and incubated overnight for adherence. Subsequently, (day 1), cells were treated with growth media supplemented with 30 ng/ml of RANKL (positive control) alone or RANKL (30 ng/ml) together with various treatments-GaAcAc solution, MH, or GaMH. […] After the initial treatment and RANKL supplementation, cells in all treatment groups (except untreated control) received RANKL supplementation on day 3 to induce OC formation. On day 4, mature OCs were fixed at 4% paraformaldehyde for 10 minutes at room temperature and evaluated for the extent of OC differentiation based on tartrate-resistant acid phosphatase (TRAP) activity and stained with TRAP staining solution. TRAP (pink colored) stained and multinucleated (≥3 nuclei) cells according to earlier reported methods. Abdelmagid et al., J Biol Chem, 290(33): p. 20128-46 (2015).

[3] = test system: murine hematopoietic stem cells (mHSCs); experiment: OC differentiation of murine hematopoietic stem cells with M-CSF and RANKL; format: cell-based, C57BL/6 mice
Method: All mice were housed and maintained at Northeast Ohio Medical University according to the guidelines of the Institutional Animal Care and Use Committee. Bone marrow cells were flushed from the femora, and tibiae were extracted from euthanized C57BL/6 mice (male, 6-8 weeks) as described previously. Xing L. and B.F. Boyce, Methods Mol Biol, 1130: p. 307-313(2014). The flushed cells were incubated overnight to separate hematopoietic (in supernatant) and mesenchymal (adherent) stem cells. The supernatant was then collected and seeded at the required density based on the type of well plate used (96 well plate: 2×10^5 cells/well & 24 well plate: 1.5×10^6 cells per well-day 0) in culture media supplemented with 30 ng/ml of M-CSF. […] On day-6, fresh media supplemented with M-CSF & RANKL were added to the differentiating cells. On day-7, the plates were fixed and evaluated for TRAP activity and counted for the number of TRAP-stained multinucleated osteoclasts formed similarly as mentioned above.

cFos, NFAT2, TRAF6, TRAP = experiment: Western blotting of OC differentiation markers; format: cell-based, murine; settings: vs positive control (RANKL)
Method: To investigate the effects on OC differentiation, Pre-OC (RAW 264.7) cells were seeded, treated, and differentiated with various treatments as described under OC differentiation. Afterward, cells were lysed with 100 μL of RIPA buffer containing protease inhibitor. The lysates were collected and centrifuged at 1500 RPM for 10 minutes and analyzed for their protein content via the BCA protein assay kit. Protein samples (20 μg) were separated via 10% SDS-page gel and transferred onto a polyvinylidene fluoride (PVDF) membrane. The membrane was blocked with a respective blocking buffer, either 5% BSA or non-fat dry milk, for an hour. After blocking, the membranes were washed with 1× TBST buffer and later probed with primary antibodies; NFAT2, TRAP, TRAF6 and cFos with GAPDH as a loading control, diluted with 2% respective blocking buffer overnight at 4° C., followed by a 1-hour incubation with secondary HRP conjugated anti-rabbit IgG secondary antibody. The blots were visualized using the Fluorchem system.

OCs from RAW 264.7 cells = experiment: Pit resorption assay on bovine cortical bone slices, OCs from RAW 264.7; format: cell-based, murine; settings: vs positive control
Method: To assess the effects of various treatments on OC function, we assessed the possible anti-resorptive effect via pit resorption assay. Briefly, bovine cortical bone slices were cleaned and sterilized as per the manufacturer's instructions and placed in a 24-well plate. The study was carried out using OC derived from either RAW 264.7 differentiation or murine hematopoietic stem cells (mHSCs).
Using OCs from RAW 264.7 cells, the detached pre-OC cells were seeded on top of the sanitized bovine cortical bone slice using 1.5×10^5 cells/cm^2 supplemented with a complete growth medium on day 0. […] Subsequent treatment with complete media containing RANKL occurred every two days for seven days. After seven days, the wells were aspirated and processed for further analysis.
To assess the osteoclastic resorptive effect of the wells with or without treatment, the bone slices were fixed with 10% formaldehyde and initially TRAP-stained, as reported. The bone slices were thoroughly cleaned with cotton swab and strained with 0.5% toluidine blue stain and incubated for three minutes at room temperature. The slices were then washed with water five times and patted dry. The pits formed on the bone slices, depicting OC function, were evaluated.

Cathepsin K (CTSK) = experiment: CTSK ELISA of cell media during bone resorption, RAW 264.7; format: cell-based, mouse; design: dose or concentration left out as unconfirmed
Method: Cathepsin K (CTSK) assay was conducted during bone resorption studies (as described above) as a useful tool to assess the effects of GaMH treatment on OC function. Supernatant from treated/untreated wells after the third treatment of differentiation factors was collected and spun down at 2000g for 10 minutes at 4° C. The supernatant was then assessed for its CTSK concentration using the mouse CTSK/Cathepsin K Sandwich ELISA kit as per manufacture protocol.

[4] = In-vivo toxicity of GaAcAc solution based on weight of animals; settings: 100 μL of 100 μg/mL subcutaneously 1-3×/week for 4 weeks
Method: Groups included in the study are: control: No injections; 1×/week: 100 μL of 100 μg/mL Ga solution injected subcutaneously in the back once per week for 4 weeks; 2×/week: 100 μL of 100 μg/mL Ga solution injected subcutaneously in the back twice per week for 4 weeks; 3×/week: 100 μL of 100 μg/mL Ga solution injected subcutaneously in the back three times per week for 4 weeks.

[5] = test system: OC differentiation and function; settings: earlier studies; cited from earlier work
[6] = In-vivo retention by IVIS imaging with ICG marker; design: species or system BALB/c mice
Method: In-vivo retention studies were carried out in healthy BALB/c mice using indocyanine green (ICG) as the marker with monitoring via the in-vivo imaging system (IVIS) Lumina XRMS series III (PerkinElmer, USA). All animal studies were performed according to a protocol approved by the Institutional Animal Care and Use Committee of Northeast Ohio Medical University.
All treatments were administered by a single periosseous (intramuscular, bone adjacent) injection in the lower right hindlimb. The animals were observed via IVIS at a selected time point to obtain total radiant efficiency of the injection site with an excitation set at 780 nm and emission at 845 nm based on the earlier reported method. Okubo et al., International Journal of Pharmaceutics, 575: p. 118845(2020 ).

In the case of `CC(=O)/C=C(/C)[O][Ga]([O]/C(C)=C\C(C)=O)[O]/C(C)=C\C(C)=O` [GaAcAc, gallium acetylacetonate], the “viability of pre-OC cells” value (RAW 264.7 cells [1]) is reported as “did not affect the viability”, the “viability of pre-OB cells” value (MC3T3 cells) is reported as “did not affect the viability” and the “TRAP staining (representative images)” value (RAW 264.7 cells [2]; 10 μg/mL) is reported as “decrease in TRAP-stained cells”. For the same compound, the TRAP activity (RAW 264.7 cells [2]; 10 μg/mL) was “remarkable decrease in TRAP activity”, the “number of TRAP-stained OCs (OC count)” value (RAW 264.7 cells [2]; 10 μg/mL) was “significant reduction in the number of OCs” and the “TRAP staining (representative images)” value (RAW 264.7 cells [2]; 50 μg/mL) was “complete absence of multinucleated and TRAP-stained cells”. For the same compound, the TRAP activity (RAW 264.7 cells [2]; 50 μg/mL) was “remarkable decrease in TRAP activity”, the “number of TRAP-stained OCs (OC count)” value (RAW 264.7 cells [2]; 50 μg/mL) was “significant reduction in the number of OCs” and the “GaAcAc concentrations with significant inhibition of OC differentiation and OC count” value ([3]; dose-dependent, p<0.0001) was “greater than 25 μg/mL”. The “OC differentiation and OC counts” value ([3]; mHSCs) was “suppressed OC differentiation and OC counts”, the “expression levels of OC differentiation markers” value (cFos, NFAT2, TRAF6, TRAP; 10 μg/mL GaAcAc) was “slight decrease in expression levels” and the “expression levels of OC differentiation markers” value (cFos, NFAT2, TRAF6, TRAP; 50 μg/mL GaAcAc) was “downregulation of expression levels”. For the same compound, the “resorption pits on bone slices” value (OCs from RAW 264.7 cells; 10 μg/mL GaAcAc) was “slightly reduced”, the “number of pits formed” value (OCs from RAW 264.7 cells; 50 μg/mL) was “significantly decrease the number of pits formed” and the “reduction in level of CTSK” value (Cathepsin K (CTSK); 50 GaAcAc solution) was 4 times reduction. For the same compound, the “reduction in CTSK concentration” value (Cathepsin K (CTSK); GaAcAc solution (10)) was 1.4 times reduction and the “toxicity based on weight of animals” value [4] was “did not show detectable toxicity”.
For `O=[N+]([O-])[O-].O=[N+]([O-])[O-].O=[N+]([O-])[O-].[Ga+3]` [GaN, gallium nitrate], the “OC differentiation and function” value [5] is given as “effectively inhibit OC differentiation and function without affecting OBs”.
In the case of `CC1(C)C(/C=C/C=C/C=C/C=C2\N(CCCCS(=O)(=O)O)c3ccc4ccccc4c3C2(C)C)=[N+](CCCCS(=O)(=O)[O-])c2ccc3ccccc3c21` [ICG, Indocyanine green], the “fluorescent intensity at injection site” value ([6]; 8 hrs post-injection, single periosseous injection) is reported as “diminished” and the “fluorescent intensity at injection site” value ([6]; 24 hrs post injection) is reported as “completely disappeared”.
